{"source": "paper PMC9481151", "about": "“Discovery of new symmetrical and asymmetrical nitrile-containing 1,4-dihydropyridine derivatives as dual kinases and P-glycoprotein inhibitors: synthesis, in vitro assays, and in silico studies” (Journal of Enzyme Inhibition and Medicinal Chemistry, 2022)", "key": {"[1]": {"test_system": "UACC-257", "test": "NCI single dose (10 µM) SRB screen", "assay_type": "cell-based, human", "conditions": "melanoma, 48 h"}, "[2]": {"test_system": "SF-268", "test": "NCI single dose (10 µM) SRB screen", "assay_type": "cell-based, human", "conditions": "CNS cancer, 48 h"}, "[3]": {"test_system": "U251", "test": "NCI single dose (10 µM) SRB screen", "assay_type": "cell-based, human", "conditions": "CNS cancer, 48 h"}, "[4]": {"test_system": "MOLT-4", "test": "NCI single dose (10 µM) SRB screen", "assay_type": "cell-based, human", "conditions": "leukaemia, 48 h"}, "[5]": {"test_system": "HOP-62", "test": "NCI single dose (10 µM) SRB screen", "assay_type": "cell-based, human", "conditions": "non-small cell lung cancer, 48 h"}, "[6]": {"test_system": "T-47D", "test": "NCI single dose (10 µM) SRB screen", "assay_type": "cell-based, human", "conditions": "breast cancer, 48 h"}, "[7]": {"test_system": "MDA-MB-435", "test": "NCI single dose (10 µM) SRB screen", "assay_type": "cell-based, human", "conditions": "melanoma, 48 h"}, "[8]": {"test_system": "RXF 393", "test": "NCI single dose (10 µM) SRB screen", "assay_type": "cell-based, human", "conditions": "renal cancer, 48 h"}, "[9]": {"test_system": "HL-60(TB)", "test": "NCI single dose (10 µM) SRB screen", "assay_type": "cell-based, human", "conditions": "leukaemia, 48 h"}, "[10]": {"test_system": "HCT-15", "test": "NCI single dose (10 µM) SRB screen", "assay_type": "cell-based, human", "conditions": "colon cancer, 48 h"}, "[11]": {"test_system": "A549/ATCC", "test": "NCI single dose (10 µM) SRB screen", "assay_type": "cell-based, human", "conditions": "non-small cell lung cancer, 48 h"}, "[12]": {"test_system": "HT29", "test": "NCI single dose (10 µM) SRB screen", "assay_type": "cell-based, human", "conditions": "colon cancer, 48 h"}, "[13]": {"test_system": "IGROV1", "test": "NCI single dose (10 µM) SRB screen", "assay_type": "cell-based, human", "conditions": "ovarian cancer, 48 h"}, "[14]": {"test_system": "NCI-H322M", "test": "NCI single dose (10 µM) SRB screen", "assay_type": "cell-based", "conditions": "non-small cell lung cancer, 48 h"}, "[15]": {"test_system": "KM12", "test": "NCI single dose (10 µM) SRB screen", "assay_type": "cell-based, human", "conditions": "colon cancer, 48 h"}, "[16]": {"test_system": "CCRF-CEM", "test": "NCI single dose (10 µM) SRB screen", "assay_type": "cell-based, human", "conditions": "leukaemia, 48 h"}, "[17]": {"test_system": "OVCAR-8", "test": "NCI single dose (10 µM) SRB screen", "assay_type": "cell-based, human", "conditions": "ovarian cancer, 48 h"}, "[18]": {"test_system": "SF-539", "test": "NCI single dose (10 µM) SRB screen", "assay_type": "cell-based, human", "conditions": "CNS cancer, 48 h"}, "[19]": {"test_system": "HCT-116", "test": "NCI single dose (10 µM) SRB screen", "assay_type": "cell-based, human", "conditions": "colon cancer, 48 h"}, "[20]": {"test_system": "RPMI-8226", "test": "NCI single dose (10 µM) SRB screen", "assay_type": "cell-based, human", "conditions": "leukaemia, 48 h"}, "[21]": {"test_system": "NCI-H460", "test": "NCI single dose (10 µM) SRB screen", "assay_type": "cell-based, human", "conditions": "non-small cell lung cancer, 48 h"}, "[22]": {"test_system": "NCI-H23", "test": "NCI single dose (10 µM) SRB screen", "assay_type": "cell-based, human", "conditions": "non-small cell lung cancer, 48 h"}, "[23]": {"test_system": "SNB-19", "test": "NCI single dose (10 µM) SRB screen", "assay_type": "cell-based, human", "conditions": "CNS cancer, 48 h"}, "[24]": {"test_system": "MCF7", "test": "NCI single dose (10 µM) SRB screen", "assay_type": "cell-based, human", "conditions": "breast cancer, 48 h"}, "[25]": {"test_system": "UO-31", "test": "NCI single dose (10 µM) SRB screen", "assay_type": "cell-based, human", "conditions": "renal cancer, 48 h"}, "[26]": {"test_system": "Escherichia coli", "test": "Agar well diffusion method", "conditions": "relative to ciprofloxacin"}, "[27]": {"test_system": "HCC-2998", "test": "NCI single dose (10 µM) SRB screen", "assay_type": "cell-based, human", "conditions": "colon cancer, 48 h"}, "[28]": {"test_system": "ACHN", "test": "NCI single dose (10 µM) SRB screen", "assay_type": "cell-based, human", "conditions": "renal cancer, 48 h"}, "[29]": {"test_system": "DU-145", "test": "NCI single dose (10 µM) SRB screen", "assay_type": "cell-based, human", "conditions": "prostate cancer, 48 h"}, "[30]": {"test_system": "K-562", "test": "NCI single dose (10 µM) SRB screen", "assay_type": "cell-based, human", "conditions": "leukaemia, 48 h"}, "[31]": {"test_system": "NCI-H522", "test": "NCI single dose (10 µM) SRB screen", "assay_type": "cell-based, human", "conditions": "non-small cell lung cancer, 48 h"}, "[32]": {"test_system": "OVCAR-5", "test": "NCI single dose (10 µM) SRB screen", "assay_type": "cell-based, human", "conditions": "ovarian cancer, 48 h"}, "[33]": {"test_system": "Candida albicans", "test": "Agar well diffusion method", "conditions": "relative to clotrimazole"}}, "data": [{"smiles": "CC1=C(C(=O)OC(C)(C)C)C(c2cccc(C#N)c2)C(C(=O)OC(C)(C)C)=C(C)N1", "note": "[Compound 1e, Di-tert-butyl 4-(3-cyanophenyl)-2,6-dimethyl-1,4-dihydropyridine-3,5-dicarboxylate]", "values": [{"measurement": "GI% UACC-257", "setting": "[1]", "value": 16, "unit": "%"}, {"measurement": "melting point", "value": "166 to 168", "unit": "°C"}, {"measurement": "GI% SF-268", "setting": "[2]", "value": 11, "unit": "%"}, {"measurement": "GI% U251", "setting": "[3]", "value": "– (Only GI% ≥ 10 are shown)"}, {"measurement": "GI% MOLT-4", "setting": "[4]", "value": 39, "unit": "%"}, {"measurement": "GI% HOP-62", "setting": "[5]", "value": "– (Only GI% ≥ 10 are shown)"}, {"measurement": "GI% T-47D", "setting": "[6]", "value": 53, "unit": "%"}, {"measurement": "GI% MDA-MB-435", "setting": "[7]", "value": "– (Only GI% ≥ 10 are shown)"}, {"measurement": "GI% RXF 393", "setting": "[8]", "value": 33, "unit": "%"}, {"measurement": "GI% HL-60(TB)", "setting": "[9]", "value": 41, "unit": "%"}, {"measurement": "GI% HCT-15", "setting": "[10]", "value": 19, "unit": "%"}, {"measurement": "GI% A549/ATCC", "setting": "[11]", "value": 20, "unit": "%"}, {"measurement": "GI% HT29", "setting": "[12]", "value": 13, "unit": "%"}, {"measurement": "GI% IGROV1", "setting": "[13]", "value": "– (Only GI% ≥ 10 are shown)"}, {"measurement": "GI% NCI-H322M", "setting": "[14]", "value": "– (Only GI% ≥ 10 are shown)"}, {"measurement": "GI% KM12", "setting": "[15]", "value": 11, "unit": "%"}, {"measurement": "GI% CCRF-CEM", "setting": "[16]", "value": 16, "unit": "%"}, {"measurement": "GI% OVCAR-8", "setting": "[17]", "value": "– (Only GI% ≥ 10 are shown)"}, {"measurement": "GI% SF-539", "setting": "[18]", "value": 10, "unit": "%"}, {"measurement": "GI% HCT-116", "setting": "[19]", "value": 35, "unit": "%"}, {"measurement": "GI% RPMI-8226", "setting": "[20]", "value": 39, "unit": "%"}, {"measurement": "GI% NCI-H460", "setting": "[21]", "value": "– (Only GI% ≥ 10 are shown)"}, {"measurement": "GI% NCI-H23", "setting": "[22]", "value": 13, "unit": "%"}, {"measurement": "GI% SNB-19", "setting": "[23]", "value": "– (Only GI% ≥ 10 are shown)"}, {"measurement": "GI% MCF7", "setting": "[24]", "value": 34, "unit": "%"}, {"measurement": "GI% UO-31", "setting": "[25]", "value": 25, "unit": "%"}, {"measurement": "% activity index, E. coli", "setting": "[26]", "value": "– (Values below 25 are of limited value and not shown as they refer either to inactive or non-diffusing compounds)"}, {"measurement": "GI% HCC-2998", "setting": "[27]", "value": "– (Only GI% ≥ 10 are shown)"}, {"measurement": "GI% ACHN", "setting": "[28]", "value": 14, "unit": "%"}, {"measurement": "GI% DU-145", "setting": "[29]", "value": "– (Only GI% ≥ 10 are shown)"}, {"measurement": "GI% K-562", "setting": "[30]", "value": 34, "unit": "%"}, {"measurement": "GI% NCI-H522", "setting": "[31]", "value": 17, "unit": "%"}, {"measurement": "GI% OVCAR-5", "setting": "[32]", "value": "– (Only GI% ≥ 10 are shown)"}, {"measurement": "% activity index, C. albicans", "setting": "[33]", "value": "– (Values below 25 are of limited value and not shown as they refer either to inactive or non-diffusing compounds)"}]}]}
